Like-named read-outs stand apart in the source and are kept apart here.
Legend:
[1] = Preliminary toxicity experiments (Comet assay, bone marrow); assay type: in vivo; conditions: mice
Protocol: As a preliminary toxicity assessment of the Aza-T-dCyd compound, preliminary toxicity experiments were conducted to determine the presence of toxicity symptoms (tissue changes) and DNA damage in bone marrow in mice after 2 weeks of systemic administration, and to assess the cellular composition in bone marrow of mice after 4 weeks of systemic administration.

[2] = system: CCRFCEM; experiment: drug activity profiling cytotoxicity; assay type: cell-based; conditions: Homo sapiens, CCRF-CEM; CCRFCEM cell line, ALL; read-out: Aza-T-dCyd IC50
Protocol: (§1) To obtain a biomarker for Aza-T-dCyd, drug activity profiling analysis was performed to evaluate the cytotoxicity of 200 cell lines.
(§2) The drug responsiveness analysis of Aza-T-dCyd through drug activity profiling and genomic analysis of 200 cell lines confirmed the potent efficacy of Aza-T-dCyd in various solid tumors (Table 2).

[3] = system: Detroit 562; experiment: drug activity profiling cytotoxicity; assay type: cell-based; conditions: Homo sapiens; Detroit 562 cell line, Head and Neck; read-out: Aza-T-dCyd IC50
Protocol: as §1, §2

[4] = system: T47D; experiment: drug activity profiling cytotoxicity; assay type: cell-based; conditions: Homo sapiens; T47D cell line, Breast; read-out: Aza-T-dCyd IC50
Protocol: as §1, §2

[5] = system: PFSK-1; experiment: drug activity profiling cytotoxicity; assay type: cell-based; conditions: Homo sapiens; PFSK-1 cell line, CNS (Glioma); read-out: Aza-T-dCyd IC50
Protocol: as §1, §2

[6] = system: AGS; experiment: drug activity profiling cytotoxicity; assay type: cell-based; conditions: Homo sapiens; AGS cell line, Stomach; read-out: Aza-T-dCyd IC50
Protocol: as §1, §2

[7] = system: L-428; experiment: drug activity profiling cytotoxicity; assay type: cell-based; conditions: Homo sapiens; L-428 cell line, Hodgkin's lymphoma; read-out: Aza-T-dCyd IC50
Protocol: as §1, §2

[8] = system: SK-N-FI; experiment: drug activity profiling cytotoxicity; assay type: cell-based; conditions: Homo sapiens; SK-N-FI cell line, CNS (Neuroblastoma); read-out: Aza-T-dCyd IC50
Protocol: as §1, §2

[9] = GLP rat Toxicology study; assay type: in vivo, rats
Protocol: GLP-Tox studies have been conducted in rats and dogs, with 2 cycles of QD×5d at PO.
In the GLP rat Toxicology study, rats received 2.5, 5, and 10 mg/kg of Aza-T-dCyd (15, 30, and 60 mg/m2) per day.

[10] = target: DNMT3B (Homo sapiens, UniProt Q9UBC3); experiment: DNMT3B expression in HL-60 xenograft tumor samples; assay type: in vivo, mice; parameters: tumor samples were collected on day 11 to determine the expression of DNMT1, DNMT3A, and DNMT3B; from tissue; host or cells: HL-60 xenograft tumour samples (mouse host); conditions: 2 mg/kg NTX-301 or 0.75 mg/kg Decitabine intraperitoneally, day 11
Protocol: (§3) As the efficacy of DNMT1 inhibitors correlates with their selective profile for targeting DNMT1 and the de novo methyltransferases DNMT3A and DNMT3B, we confirmed the expression of DNMT1, DNMT3A, and DNMT3B in the Aza-T-dCyd and Decitabine treated groups in this xenograft model (FIG. 27).
(§4) In the HL-60 xenograft mice model, 2 mg/kg of NTX-301 (Aza-T-dCyd) or 0.75 mg/kg of Decitabine were administered intraperitoneally, and then tumor samples were collected on day 11 to determine the expression of DNMT1, DNMT3A, and DNMT3B. […] On the other hand, the expression levels of DNMT3A and DNMT3B were different in the Aza-T-dCyd and Decitabine treatment groups.

[11] = system: HCT-116 (colorectal); experiment: HCT-116 (colorectal) xenograft model; assay type: in vivo, Mouse; conditions: nude mouse, 1 mg/kg, (4) cycles
Protocol: The efficacy of Aza-T-dCyd was confirmed by tumor growth curves after administration of Aza-T-dCyd in various solid cancer xenograft models. Aza-T-dCyd at a dose of 1~2 mg/kg was administered repeatedly for 2~6 cycles in QD×5, showing excellent anti-cancer effects (evidenced by test/control (T/C) value≤40%).

[12] = Pharmacokinetic evaluation in Dog; assay type: in vivo; conditions: for AUC(0-inf) / AUC(0-t) / Cmax / half-life / Tmax: in vivo, Dog; for half-life: read-out: T½ (converted)
Protocol: Aza-T-dCyd was administered orally and intravenously at various concentrations to Mice, Rats and Dogs to determine the PK profile.

[13] = system: p15 tumor suppressor gene; experiment: p15 tumor suppressor gene re-expression (RT-PCR) in MV4-11 cells; assay type: cell-based; conditions: for p15 mRNA re-expression: MV4-11 cell line
Protocol: Therefore, to determine the re-expression of tumor suppressor genes through epigenetic regulation mechanisms induced by DNMT1 inhibition upon Aza-T-dCyd (NTX-301) treatment, MV4-11 cells, an AML cell line, were treated with Aza-T-dCyd at different concentrations. […] Table 1 below compares the degree of p15 mRNA re-expression after DNMT1 inhibitor (Aza-T-dCyd/Decitabine) treatment in the MV4-11 cell line, an AML cell (fold increase from 0 nM is shown).

[14] = system: DNMT3A; experiment: DNMT3A expression in HL-60 xenograft tumor samples; assay type: in vivo, mice; conditions: 2 mg/kg NTX-301 intraperitoneally, day 11
Protocol: as §3, §4

## Nc1ncn([C@H]2CC(O)[C@@H](CO)S2)c(=O)n1 (some centres unmarked) [Aza-T-dCyd, 4′-thio-5-aza-2′-deoxycytidine]
[1]; 4 weeks of continuous administration
  cellular composition of the bone marrow: no changes in the various cells that make up the bone marrow
[1]; after two weeks
  organ damage at necropsy: no organ damage
[1]; after two weeks of treatment, versus untreated control
  Comet assay for DNA damage in bone marrow: no changes in various indicators of DNA damage
[1]; two-week systemic administration
  weight changes: no significant weight changes
[2]
  IC50: 119 nM
[3]
  IC50: 81.1 nM
[4]
  IC50: > 10000 nM
[5]
  IC50: 7610 nM
[6]
  IC50: 58.4 nM
[7]
  IC50: 365 nM
[8]
  IC50: 2710 nM
[9]; rat
  Testicular toxicity, including decreased sperm count: reversible upon discontinuation
[9]; rat, 2.5, 5 and 10 mg/kg per day
  Toxicity target organs: bone marrow, thymus, heart, and testes
[10]
  DNMT3B expression level in tumor samples: significantly reduced
[11]
  Optimal T/C (%) (test/control): 21%
[12]; dogs
  oral bioavailability: orally bioavailable
[12]; IV 0.33 mg/kg
  AUC(0-inf): 1130 ng·h/mL
  AUC(0-t): 1050 ng·h/mL
  Cmax: 552 ng/mL
  half-life: 2.25 h
[12]; PO 0.15 mg/kg
  AUC(0-inf): 439 ng·h/mL
  AUC(0-t): 409 ng·h/mL
  Cmax: 104 ng/mL
  Tmax: 1 h
  half-life: 1.86 h
[12]; PO 0.33 mg/kg
  AUC(0-inf): 880 ng·h/mL
  AUC(0-t): 790 ng·h/mL
  Cmax: 210 ng/mL
  Tmax: 0.67 h
  half-life: 2.34 h
[12]; PO 0.67 mg/kg
  AUC(0-inf): 1760 ng·h/mL
  AUC(0-t): 1570 ng·h/mL
  Cmax: 463 ng/mL
  Tmax: 0.83 h
  half-life: 2.26 h
[12]; PO 1.5 mg/kg
  AUC(0-inf): 3370 ng·h/mL
  AUC(0-t): 3200 ng·h/mL
  Cmax: 882 ng/mL
  Tmax: 0.67 h
  half-life: 1.68 h
[12]; PO 3.0 mg/kg
  AUC(0-inf): 5620 ng·h/mL
  AUC(0-t): 5380 ng·h/mL
  Cmax: 1670 ng/mL
  Tmax: 0.417 h
  half-life: 1.65 h
[13]; 6 nM
  p15 mRNA re-expression: 1.4 ± 0.19 fold increase from 0 nM
[13]; 20 nM
  p15 mRNA re-expression: 1.7 ± 0.38 fold increase from 0 nM
[13]; 60 nM
  p15 mRNA re-expression: 2.6 ± 0.89 fold increase from 0 nM
[13]; 200 nM
  p15 mRNA re-expression: 6.1 ± 0.86 fold increase from 0 nM
[13]; MV4-11 cells
  p15 upregulation compared with decitabine: induced p15 upregulation better than decitabine
[13]; MV4-11 cells, 60 nM and 200 nM
  expression of p15 tumor suppressor gene (quantitative RT-PCR): significantly increased
[13]; MV4-11 cells, different concentrations, FIG. 14
  p15 mRNA re-expression (RT-PCR): strong re-expression of p15 mRNA
[14]
  DNMT3A expression level in tumor samples: not affected

Reference: patent US12708630B2, “Combined therapy of 4′-thio-5-aza-2′-deoxycytidine and Venetoclax” (PINOTBIO, INC., priority 2021, dated 2026)
